Experimental data taken from ChEMBL document CHEMBL5053528, “Discovery of 2-(Ortho-Substituted Benzyl)-Indole Derivatives as Potent and Orally Bioavailable RORγ Agonists with Antitumor Activity” (J Med Chem, 2021).

Tests used:
[1] = Microsomal stability in human liver microsomes assessed as half life; format: ADME, Microsome
[2] = biological target: T1, Nuclear receptor ROR-gamma (Homo sapiens, UniProt P51449); assay: Agonist activity at N-terminal GST tagged human RORgamma LBD using fluorescein-D22 as coactivator incubated for 60 mins by Lanthascreen TR-FRET assay
T1 sequence (P51449 whole entry): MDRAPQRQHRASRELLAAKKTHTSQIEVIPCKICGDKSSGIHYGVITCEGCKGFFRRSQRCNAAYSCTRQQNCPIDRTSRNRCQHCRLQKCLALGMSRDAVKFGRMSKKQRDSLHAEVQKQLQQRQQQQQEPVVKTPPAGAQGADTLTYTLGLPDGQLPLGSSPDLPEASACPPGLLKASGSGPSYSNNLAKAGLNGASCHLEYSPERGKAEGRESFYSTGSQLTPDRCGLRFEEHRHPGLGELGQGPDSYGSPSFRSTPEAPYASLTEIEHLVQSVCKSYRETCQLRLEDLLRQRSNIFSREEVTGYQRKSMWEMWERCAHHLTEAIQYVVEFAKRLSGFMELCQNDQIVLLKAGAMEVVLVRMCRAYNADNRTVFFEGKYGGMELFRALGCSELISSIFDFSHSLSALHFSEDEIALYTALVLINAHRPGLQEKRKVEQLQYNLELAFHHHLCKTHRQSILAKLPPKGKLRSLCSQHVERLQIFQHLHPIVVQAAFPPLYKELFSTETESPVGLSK

[3] = biological target: T1, Nuclear receptor ROR-gamma; assay: Agonist activity at human RORgamma in cytostim stimulated human PBMC cells assessed as increase in differentiation of TH17 cells by measuring IL-17 production preincubated with cytostim for 72 hrs by ELISA; format: cell-based
[4] = Microsomal stability in rat liver microsomes assessed as half life; format: ADME, Microsome
[5] = biological target: T1, Nuclear receptor ROR-gamma; assay: Antagonist activity at N-terminal GST tagged human RORgamma LBD using fluorescein-D22 as coactivator incubated for 60 mins by Lanthascreen TR-FRET assay
[6] = biological target: T1, Nuclear receptor ROR-gamma; assay: Antagonist activity at human RORgamma in cytostim stimulated human PBMC cells assessed as decrease in differentiation of TH17 cells by measuring IL-17 production preincubated with cytostim for 72 hrs by ELISA; format: cell-based
[7] = biological target: T2, Nuclear receptor ROR-gamma (Homo sapiens) (UniProt P51449); assay: Inverse agonist activity at human RORgamma in cytostim stimulated human PBMC cells assessed as […] in IL-17 production by measuring maximal efficacy preincubated with cytostim for 72 hrs by ELISA relative to control; format: cell-based; details: filed as inverse agonist
T2 sequence (whole entry): T1 sequence (P51449 whole entry)

half-life [1] [min]	EC50 [2] [nM]	EC50 [3] [nM]	half-life [4] [min]	EC50 [5] [nM]	EC50 [6] [nM]	Emax [7] [%]	Structure (SMILES)
182	11	8	116				CCS(=O)(=O)c1ccc(CNC(=O)c2ccc3c(c2)cc(Cc2ccc(Cl)cc2C(F)(F)F)n3C(C)C)cc1
39			43				CCS(=O)(=O)c1ccc(CNC(=O)c2ccc3c(c2)cc(Cc2ccccc2C(F)(F)F)n3C(C)C)cc1
72	14	17	64				CCS(=O)(=O)c1ccc(CNC(=O)c2ccc3c(c2)cc(Cc2ccc(F)cc2C(F)(F)F)n3C(C)C)cc1
				683			CCS(=O)(=O)c1ccc(CNC(=O)c2ccc3c(c2)cc(Cc2ccccc2)n3C(C)C)cc1
139			102				CCS(=O)(=O)c1ccc(CNC(=O)c2ccc3c(c2)cc(Cc2ccc(Cl)cc2C(F)(F)F)n3C2CC2)cc1
				150	109	109	CCS(=O)(=O)c1ccc(CNC(=O)c2ccc3c(c2)cc(Cc2ccc(C(F)(F)F)cc2)n3C(C)C)cc1
